A word on the IC50: it is the midpoint of a concentration-inhibition curve. For orientation: inhibition means the relative decrease from the control value, in per cent. Low readings indicate little suppression, high ones strong suppression.

The results in this text go back to ChEMBL document CHEMBL1137690, “Novel amide derivatives as inhibitors of histone deacetylase: design, synthesis and SAR” (Eur J Med Chem, 2009).

For one test, the target named is Histone deacetylase. Kind of test: Inhibition of HDAC from human HeLa cells. The class given is cell-based.
Another test has as its system HeLa. Nature of the test: Antiproliferative activity against human HeLa cells after 4 hrs by WST-1 assay. The class given is functional, cell-based. A general note: Tetrazolium dyes change colour on reduction, which living cells bring about.
Test [1] has as its target Histone deacetylase (Homo sapiens) (UniProt Q13547+O15379+Q9UBN7+Q92769+Q9UQL6+Q8WUI4+Q9BY41+Q96DB2+P56524+Q9UKV0+Q969S8). Nature of the test: Inhibition of HDAC from human HeLa cells at 500 nM.
The test system of test [2] is P388. Nature of the test: Antitumor activity in mouse P388 cells xenografted B6D2F1 mouse assessed as increase in life span at 100 mg/kg/day, ip administered 3 to 7 days postxenografting. Particulars: route intraperitoneal. The class given is functional.
In test [3] the test system is P388. Nature of the test: Antitumor activity in mouse P388 cells xenografted B6D2F1 mouse assessed as increase in life span at 60 mg/kg/day, ip administered 3 to 7 days postxenografting. The class given is functional. Particulars: route intraperitoneal.
In test [4] the test system is P388. Kind of test: Antitumor activity in mouse P388 cells xenografted B6D2F1 mouse assessed as increase in life span at 20 mg/kg/day, ip administered 3 to 7 days postxenografting. The class given is functional. The conditions noted are these: route intraperitoneal.
The target of another test is Histone deacetylase 9 (Homo sapiens, UniProt Q9UKV0). Kind of test: Inhibition of human recombinant HDAC9.
Histone deacetylase 9, sequence (Q9UKV0 whole entry): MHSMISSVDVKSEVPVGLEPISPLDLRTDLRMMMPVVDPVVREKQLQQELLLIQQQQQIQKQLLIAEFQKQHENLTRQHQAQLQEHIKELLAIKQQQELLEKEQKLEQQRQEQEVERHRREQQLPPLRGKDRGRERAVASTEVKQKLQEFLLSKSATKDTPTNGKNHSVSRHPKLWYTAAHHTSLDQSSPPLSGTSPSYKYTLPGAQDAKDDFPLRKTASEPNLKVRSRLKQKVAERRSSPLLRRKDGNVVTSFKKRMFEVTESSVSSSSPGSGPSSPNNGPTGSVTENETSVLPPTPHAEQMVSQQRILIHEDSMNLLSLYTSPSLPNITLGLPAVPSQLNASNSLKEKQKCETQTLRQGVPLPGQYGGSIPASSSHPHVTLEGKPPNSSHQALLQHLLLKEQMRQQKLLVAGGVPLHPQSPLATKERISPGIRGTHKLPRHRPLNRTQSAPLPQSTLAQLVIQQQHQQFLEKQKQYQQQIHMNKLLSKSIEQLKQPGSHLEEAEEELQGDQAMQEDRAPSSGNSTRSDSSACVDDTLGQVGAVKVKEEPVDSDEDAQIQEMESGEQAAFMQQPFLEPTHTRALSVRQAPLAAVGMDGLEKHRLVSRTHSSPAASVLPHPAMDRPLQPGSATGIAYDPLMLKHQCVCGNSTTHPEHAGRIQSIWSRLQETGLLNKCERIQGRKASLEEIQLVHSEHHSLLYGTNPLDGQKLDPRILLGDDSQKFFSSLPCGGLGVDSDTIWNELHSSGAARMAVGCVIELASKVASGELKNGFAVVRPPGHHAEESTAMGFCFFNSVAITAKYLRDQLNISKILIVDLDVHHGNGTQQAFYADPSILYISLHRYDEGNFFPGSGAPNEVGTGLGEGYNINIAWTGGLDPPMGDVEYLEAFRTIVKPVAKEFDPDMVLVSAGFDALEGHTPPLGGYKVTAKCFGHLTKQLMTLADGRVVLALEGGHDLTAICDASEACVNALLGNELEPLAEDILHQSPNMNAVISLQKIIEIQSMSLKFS
Another test has as its target Histone deacetylase 3 (Homo sapiens, UniProt O15379). Kind of test: Inhibition of human recombinant HDAC3.
The target in the next test is Histone deacetylase 4 (Homo sapiens, UniProt P56524). Nature of the test: Inhibition of human recombinant HDAC4.
Histone deacetylase 4, sequence (P56524 whole entry): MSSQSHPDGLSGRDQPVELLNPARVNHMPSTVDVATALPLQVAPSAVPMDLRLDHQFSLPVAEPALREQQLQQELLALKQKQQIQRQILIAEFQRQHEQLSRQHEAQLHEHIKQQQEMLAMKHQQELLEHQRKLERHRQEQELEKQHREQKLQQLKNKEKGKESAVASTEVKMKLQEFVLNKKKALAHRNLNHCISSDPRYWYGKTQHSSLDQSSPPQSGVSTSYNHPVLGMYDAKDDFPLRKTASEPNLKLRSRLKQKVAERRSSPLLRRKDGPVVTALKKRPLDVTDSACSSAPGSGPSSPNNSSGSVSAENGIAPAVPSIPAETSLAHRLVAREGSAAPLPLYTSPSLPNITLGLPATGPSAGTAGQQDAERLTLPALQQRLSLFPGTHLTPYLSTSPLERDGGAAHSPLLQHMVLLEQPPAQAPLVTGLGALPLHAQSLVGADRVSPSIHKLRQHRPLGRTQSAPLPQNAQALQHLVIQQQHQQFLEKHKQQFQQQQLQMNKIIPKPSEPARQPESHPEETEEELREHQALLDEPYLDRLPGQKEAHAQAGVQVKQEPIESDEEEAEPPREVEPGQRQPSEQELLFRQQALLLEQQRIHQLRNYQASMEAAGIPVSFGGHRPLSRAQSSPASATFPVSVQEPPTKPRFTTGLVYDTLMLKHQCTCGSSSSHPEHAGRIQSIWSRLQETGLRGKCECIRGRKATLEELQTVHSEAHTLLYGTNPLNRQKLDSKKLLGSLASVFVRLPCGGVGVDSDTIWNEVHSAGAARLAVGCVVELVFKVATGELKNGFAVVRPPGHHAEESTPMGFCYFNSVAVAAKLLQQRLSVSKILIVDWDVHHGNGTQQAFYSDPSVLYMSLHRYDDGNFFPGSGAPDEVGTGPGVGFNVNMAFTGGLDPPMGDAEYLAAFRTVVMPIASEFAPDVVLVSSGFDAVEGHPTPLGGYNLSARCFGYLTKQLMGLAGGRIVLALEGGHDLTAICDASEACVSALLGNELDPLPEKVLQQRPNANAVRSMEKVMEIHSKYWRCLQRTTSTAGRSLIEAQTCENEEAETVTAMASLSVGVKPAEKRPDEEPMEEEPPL
The target of another test is T1, Histone deacetylase 8 (Homo sapiens, UniProt Q9BY41).
T1 sequence (Q9BY41 whole entry): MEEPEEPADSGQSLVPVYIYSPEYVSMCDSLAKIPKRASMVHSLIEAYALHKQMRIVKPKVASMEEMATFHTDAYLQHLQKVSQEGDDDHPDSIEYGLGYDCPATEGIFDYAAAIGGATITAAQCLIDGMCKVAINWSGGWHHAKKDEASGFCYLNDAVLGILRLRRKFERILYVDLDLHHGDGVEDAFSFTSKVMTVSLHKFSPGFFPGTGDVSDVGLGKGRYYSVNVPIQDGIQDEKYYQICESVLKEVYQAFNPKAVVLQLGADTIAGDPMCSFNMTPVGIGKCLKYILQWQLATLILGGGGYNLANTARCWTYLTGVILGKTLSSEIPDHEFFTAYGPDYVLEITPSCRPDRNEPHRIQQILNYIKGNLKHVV
Kind of test: Inhibition of human recombinant HDAC8.

Test [5] deals with T2, Protein deacetylase HDAC6 (Homo sapiens, UniProt Q9UBN7).
T2 sequence (Q9UBN7 whole entry): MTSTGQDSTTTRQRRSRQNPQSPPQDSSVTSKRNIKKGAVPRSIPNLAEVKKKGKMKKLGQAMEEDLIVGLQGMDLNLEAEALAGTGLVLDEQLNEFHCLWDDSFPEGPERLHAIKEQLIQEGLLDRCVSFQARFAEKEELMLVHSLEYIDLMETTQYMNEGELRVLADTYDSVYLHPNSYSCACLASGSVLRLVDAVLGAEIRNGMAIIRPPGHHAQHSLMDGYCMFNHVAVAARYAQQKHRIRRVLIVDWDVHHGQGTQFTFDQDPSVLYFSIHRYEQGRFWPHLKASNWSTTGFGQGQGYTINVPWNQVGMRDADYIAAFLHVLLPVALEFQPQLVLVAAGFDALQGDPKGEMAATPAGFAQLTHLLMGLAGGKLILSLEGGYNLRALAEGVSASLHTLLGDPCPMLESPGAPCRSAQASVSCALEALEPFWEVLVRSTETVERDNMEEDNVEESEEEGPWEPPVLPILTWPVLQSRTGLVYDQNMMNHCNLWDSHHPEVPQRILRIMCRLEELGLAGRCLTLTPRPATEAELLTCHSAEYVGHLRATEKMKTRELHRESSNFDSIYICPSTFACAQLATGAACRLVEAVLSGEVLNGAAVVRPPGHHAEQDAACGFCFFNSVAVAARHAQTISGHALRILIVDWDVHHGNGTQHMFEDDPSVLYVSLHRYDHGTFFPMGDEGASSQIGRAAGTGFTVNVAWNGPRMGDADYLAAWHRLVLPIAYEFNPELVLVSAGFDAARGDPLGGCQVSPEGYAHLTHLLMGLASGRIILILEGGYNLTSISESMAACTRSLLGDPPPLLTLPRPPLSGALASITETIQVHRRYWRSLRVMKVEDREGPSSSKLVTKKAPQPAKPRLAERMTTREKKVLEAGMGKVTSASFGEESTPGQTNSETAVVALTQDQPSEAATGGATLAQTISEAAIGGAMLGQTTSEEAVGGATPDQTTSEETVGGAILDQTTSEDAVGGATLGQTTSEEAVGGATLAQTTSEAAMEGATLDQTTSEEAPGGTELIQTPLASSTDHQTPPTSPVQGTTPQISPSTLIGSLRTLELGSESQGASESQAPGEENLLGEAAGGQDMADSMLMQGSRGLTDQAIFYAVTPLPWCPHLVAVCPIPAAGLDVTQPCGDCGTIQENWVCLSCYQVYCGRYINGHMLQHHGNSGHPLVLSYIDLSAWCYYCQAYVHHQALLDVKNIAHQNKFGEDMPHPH
Nature of the test: Inhibition of human recombinant HDAC6.

A further test addresses Histone deacetylase 2 (Homo sapiens, UniProt Q92769). Nature of the test: Inhibition of human recombinant HDAC2.
In the next test the target is Histone deacetylase 1 (Homo sapiens, UniProt Q13547). Kind of test: Inhibition of human recombinant HDAC1.
Histone deacetylase 1, sequence (Q13547 whole entry): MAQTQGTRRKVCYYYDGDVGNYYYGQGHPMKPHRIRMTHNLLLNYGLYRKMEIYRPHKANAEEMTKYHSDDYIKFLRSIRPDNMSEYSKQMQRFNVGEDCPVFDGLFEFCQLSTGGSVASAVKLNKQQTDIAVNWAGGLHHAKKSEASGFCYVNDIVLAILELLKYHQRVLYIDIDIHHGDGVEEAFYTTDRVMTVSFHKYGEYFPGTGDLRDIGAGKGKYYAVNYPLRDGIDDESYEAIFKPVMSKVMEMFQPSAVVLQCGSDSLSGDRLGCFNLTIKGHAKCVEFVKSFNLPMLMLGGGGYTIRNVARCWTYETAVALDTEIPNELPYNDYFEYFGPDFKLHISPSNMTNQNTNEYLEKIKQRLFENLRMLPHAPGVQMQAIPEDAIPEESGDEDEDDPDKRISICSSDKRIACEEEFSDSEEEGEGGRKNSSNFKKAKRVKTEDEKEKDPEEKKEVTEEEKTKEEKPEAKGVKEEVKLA

Histone deacetylase 2, sequence (Q92769 whole entry): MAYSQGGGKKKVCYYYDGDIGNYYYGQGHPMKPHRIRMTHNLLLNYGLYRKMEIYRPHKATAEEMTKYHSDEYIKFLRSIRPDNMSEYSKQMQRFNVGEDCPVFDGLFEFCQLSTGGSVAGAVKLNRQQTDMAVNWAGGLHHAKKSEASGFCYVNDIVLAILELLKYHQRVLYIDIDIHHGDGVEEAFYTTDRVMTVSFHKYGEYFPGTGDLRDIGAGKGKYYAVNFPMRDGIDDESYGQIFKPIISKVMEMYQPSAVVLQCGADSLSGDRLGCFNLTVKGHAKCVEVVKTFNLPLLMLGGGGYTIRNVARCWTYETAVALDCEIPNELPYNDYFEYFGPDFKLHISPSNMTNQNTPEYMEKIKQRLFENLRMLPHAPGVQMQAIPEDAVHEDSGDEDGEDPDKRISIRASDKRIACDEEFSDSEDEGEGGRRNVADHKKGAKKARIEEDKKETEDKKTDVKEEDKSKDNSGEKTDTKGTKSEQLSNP
Histone deacetylase 3, sequence (O15379 whole entry): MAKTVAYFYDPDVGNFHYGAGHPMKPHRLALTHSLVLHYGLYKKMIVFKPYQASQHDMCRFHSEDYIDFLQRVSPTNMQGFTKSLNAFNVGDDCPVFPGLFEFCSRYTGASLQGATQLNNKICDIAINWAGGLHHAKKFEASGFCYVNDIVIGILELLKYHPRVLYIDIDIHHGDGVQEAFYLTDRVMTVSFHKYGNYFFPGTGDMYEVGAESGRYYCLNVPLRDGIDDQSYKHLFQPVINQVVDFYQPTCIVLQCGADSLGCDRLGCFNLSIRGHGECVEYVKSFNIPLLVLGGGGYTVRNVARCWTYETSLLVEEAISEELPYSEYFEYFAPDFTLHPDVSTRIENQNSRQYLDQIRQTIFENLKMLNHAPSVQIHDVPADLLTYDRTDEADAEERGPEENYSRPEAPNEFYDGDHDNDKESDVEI

On to `O=C(/C=C/c1ccccn1)NCCCCCC(=O)NO.O=C(O)C(=O)O`, for which the results for the IC50 at Histone deacetylase and in the test with HeLa (48 h) were 46 nM and 9.5 µM, respectively.

With `CN(C)c1ccc(C(=O)NCCCCCC(=O)NO)cc1`, half-maximal inhibition in the test with HeLa (48 h) (IC50) was put at 4.1 µM.

As to `O=C(CCCCCCC(=O)NCCc1ccccc1)NO`, in [1], the inhibition was found to be 46%. This compound returned an IC50 in the test on HeLa (48 h) of 13.3 µM.

Turning to `O=C(/C=C/c1cccc2cccnc12)NCCCCCC(=O)NO`, the IC50 against Histone deacetylase worked out at 25 nM; with HeLa (48 h), 20.9 µM.

In the case of `CC(/C=C/C(=O)NCCCC(=O)NO)=C\c1ccccc1`, the IC50 at Histone deacetylase turned out to be 22850 nM; with HeLa (48 h), 114 µM.

In test [1], `O=C(CCCCCNC(=O)Cc1ccc(-c2ccccc2)cc1)NO` gave an inhibition of 51%. In the test with HeLa (48 h), this compound had an IC50 of 35.9 µM.

In the case of `O=C(CCCCCCC(=O)Nc1ccccc1)NO` [VORINOSTAT], the Activity came out at 14% with P388 [2], 0% in the test on P388 [3] and 11% with P388 [4].

For the compound `O=C(CCCCCCCNC(=O)c1ccc2ccccc2c1)NO`, the concentration for half-maximal inhibition (IC50) on Histone deacetylase is 28 nM; in the test on HeLa (48 h) it was 3.6 µM.

For `O=C(C#Cc1ccccc1)NCCCCCC(=O)NO`, the results for the IC50 on Histone deacetylase and with HeLa (4 h) were 62 nM and 10.6 µM, respectively.

With `O=C(C=C1c2ccccc2CCc2ccccc21)NCCCCCC(=O)NO`, the results for the IC50 on Histone deacetylase and in the test on HeLa (48 h) were 338 nM and 9.9 µM, respectively.

Regarding `O=C(/C=C/c1ccncc1)NCCCCCC(=O)NO.O=C(O)C(=O)O`, the IC50 amounted to 101 nM against Histone deacetylase and 46.4 µM in the test on HeLa (48 h).

In [1], `O=C(CCCCCNC(=O)CCCc1ccccc1)NO` registered an inhibition of 19%. The same compound had an IC50 with HeLa (48 h) of 52.7 µM.

For `O=C(/C=C/c1ccc2ccccc2c1)NCCCCCC(=O)NO`, the IC50 at Histone deacetylase turned out to be 7 nM; with HeLa (48 h), 18.3 µM.

On to `CN(C)c1ccc(CC(=O)NCCCCCC(=O)NO)cc1`, for which the inhibition in test [1] came to 9%. The compound also came in with a half-maximal inhibitory concentration (IC50) in the test with HeLa (48 h) of 52.7 µM.

For `O=C(/C=C/c1cccnc1)NCCCCCC(=O)NO.O=C(O)C(=O)O`, the IC50 on Histone deacetylase stood at 141 nM; with HeLa (48 h), 28.4 µM.

`O=C(/C=C/C=C/c1ccccc1)NCCCCCC(=O)NO`: the IC50 against Histone deacetylase stood at 29 nM; with HeLa (48 h), 5.1 µM.

In test [1], `O=C(CCCCNC(=O)c1ccc2ccccc2c1)NO` came in with an inhibition of 42%. The IC50 in the test on HeLa (48 h) came out at 24.7 µM.

In the case of `O=C(C=C(c1ccccc1)c1ccccc1)NCCCCCC(=O)NO`, the IC50 against Histone deacetylase stood at 201 nM; in the test with HeLa (48 h), 8.5 µM.

The compound `O=C(CCCCCNC(=O)CCCCc1ccccc1)NO` yielded an inhibition in test [1] of 51%. Besides, the IC50 in the test on HeLa (48 h) is 70.8 µM.

In the case of `O=C(CCCCCCC(=O)NCc1ccccc1)NO`, the inhibition in test [1] came out at 39%. In the test with HeLa (48 h), the IC50 was 44.2 µM.

Take `O=C(CCCCCNC(=O)CCc1ccccc1)NO`: the inhibition in [1] is 27%. This compound came in with an IC50 in the test with HeLa (48 h) of 74.8 µM.

On to `O=C(/C=C/c1ccccc1)NCCCCCC(=O)NO`, for which the IC50 on Histone deacetylase worked out at 32 nM; with HeLa (48 h), 5.5 µM.

With `O=C(CCCCCNC(=O)CC/C=C/c1ccccc1)NO`, the IC50 came out at 625 nM on Histone deacetylase and 20.6 µM in the test with HeLa (48 h).

For the compound `O=C(CCCCCNC(=O)C/C=C/c1ccccc1)NO`, the inhibition in test [1] stood at 53%. Moreover, the IC50 with HeLa (48 h) came out at 24 µM.

In turn, `CC(/C=C/c1ccccc1)=C\C(=O)NCCCCCC(=O)NO` registered an IC50 with HeLa (48 h) of 4.8 µM.

With `O=C(CCCCCNC(=O)c1ccc(-c2ccccc2)cc1)NO`, the IC50 on Histone deacetylase stood at 38 nM; in the test on HeLa (48 h), 2.6 µM.

Take `O=C(C=C1c2ccccc2-c2ccccc21)NCCCCCC(=O)NO`: the IC50 stood at 2.3 nM at Histone deacetylase 9; 2.8 nM at Histone deacetylase 3; 1.2 nM at Histone deacetylase 4; 779 nM at Histone deacetylase 8; 2 nM in test [5]; 5 nM at Histone deacetylase. In addition, the values for the IC50 on Histone deacetylase 2, in the test with HeLa (48 h) and on Histone deacetylase 1 were 0.8 nM, 1.7 µM and 1.6 nM, respectively. In addition, the Activity came out at 78% with P388 [3] and 11% in the test with P388 [4].

Take `O=C(/C=C/c1ccc2cccnc2c1)NCCCCCC(=O)NO`: the Activity with P388 [3] turned out to be 111%; with P388 [4] it was 0%. The compound also gave an IC50 in the test on HeLa (48 h) of 12.3 µM.

With `O=C(CCCCCCNC(=O)c1ccc2ccccc2c1)NO`, half-maximal inhibition in the test with HeLa (48 h) (IC50) was put at 0.4 µM.

Take `O=C(/C=C/c1ccc(Cl)cc1F)NCCCCCC(=O)NO`: the Activity came out at 22% with P388 [3] and 0% in the test with P388 [4]. In the test on HeLa (48 h), this compound registered an IC50 of 6.3 µM.
